Assay results: patent US9676789B2, “Aminated derivative of homoharringtonine, preparation method therefor, and application thereof” (HANGZHOU BENSHENG PHARMACEUTICAL CO., LTD., priority 2011, dated 2017)
Values after ≈ are worked out from the molar mass of the structure shown.

Legend:
[1] = system: Jurkat (acute lymphoblastic leukemia, ALL); assay: MTT leukemia cell growth inhibition, 72 h; assay type: cell-based, human; details: Homo sapiens; for IC50: read-out: IC50; for IC90: read-out: IC90
Source text: (§1) Leukemia cell lines: K562/adr (drug-resistant, chronic myeloid leukemia, CML), NB4 (acute promyelocytic leukemia, AML), Kasumi-1 (acute myeloid leukemia M2 type, AML-M2), Jurkat (acute lymphoblastic leukemia, ALL), all of which are donated by Cancer Research Institute of Zhejiang University, China; and H9 (acute lymphoblastic leukemia, ALL), which is purchased from China Center for Type Culture Collection.
(§2) Obtaining 6000 well-growing leukemia cells and inoculating them into wells of a 96-well cell culture plate. The culture medium is the 1640 cell culture medium containing 10% fetal bovine serum. After adding the homoharringtonine derivatives of different concentrations and mixing uniformly, placing the plate in a carbon dioxide cell incubator (5% CO2) at 37° C. and incubating for 72 hours. Then the viable cell concentration is determined by the MTT method. In this experiment, the cell viability in control group (not treated with any compound) is set as 100%.

[2] = system: NB4 (acute promyelocytic leukemia, AML); assay: MTT leukemia cell growth inhibition, 72 h; assay type: cell-based, human; details: Homo sapiens, NB4, 72 h; for IC50: read-out: IC50; for IC90: read-out: IC90
Source text: as §1, §2

[3] = system: K562/adr (drug-resistant, chronic myeloid leukemia, CML); assay: MTT leukemia cell growth inhibition, 72 h; assay type: cell-based, human; details: Homo sapiens, K562/Adr; for IC50: read-out: IC50; for IC90: read-out: IC90
Source text: as §1, §2

[4] = system: Kasumi-1 (acute myeloid leukemia M2 type, AML-M2); assay: MTT leukemia cell growth inhibition, 72 h; assay type: cell-based, human; details: Homo sapiens, Kasumi-1, 72 h; for IC50: read-out: IC50; for IC90: read-out: IC90
Source text: as §1, §2

[5] = system: H9 (acute lymphoblastic leukemia, ALL); assay: MTT leukemia cell growth inhibition, 72 h; assay type: cell-based, human; details: Homo sapiens, H9, 72 h; for IC50: read-out: IC50; for IC90: read-out: IC90
Source text: as §1, §2

[6] = system: RPMI8226 (multiple myeloma); assay: MTT multiple myeloma cell growth inhibition, 72 h; assay type: cell-based, human; details: Homo sapiens, RPMI-8226, RPMI8226, 72 h; for IC50: read-out: IC50; for IC90: read-out: IC90
Protocol: Multiple myeloma and lymphoma cell lines: RPMI8226 (multiple myeloma), purchased from Fuxiang Bio-tech Co. Ltd., Shanghai, China.
Obtaining 6000 well-growing leukemia cells and inoculating them into wells of a 96-well cell culture plate. The culture medium is the 1640 cell culture medium containing 10% fetal bovine serum. After adding the homoharringtonine derivatives of different concentrations and mixing uniformly, placing the plate in a carbon dioxide cell incubator (5% CO2) at 37° C. and incubating for 72 hours. Then the viable cell concentration is determined by the MTT method.

MG63 (osteosarcoma) = assay: MTT solid tumor cell growth inhibition, 72 h; assay type: cell-based, human; details: Homo sapiens, MG 63, 72 h; for IC50: read-out: IC50; for IC90: read-out: IC90
Protocol: (§3) Human solid tumor cell lines: Hep-2 ([…]), A549 (human lung cancer), CaES-17 (esophageal cancer cell), PC-3 (prostate cancer), CNE (nasopharyngeal carcinoma cell), and SK-OV-3 (ovarian cancer cell), all of which are purchased from China Center For Type Culture Collection; RKO (human colon adenocarcinoma cell), MGC 803 (human gastric cancer cell), MG63 (osteosarcoma) and U87 MG (malignant glioma cell), all of which are purchased from Fuxiang Bio-tech Co. Ltd., Shanghai, China; PANC-1 (pancreatic cancer), Huh7 (human liver cancer cell), Becap37 (human breast cancer cell), and Hela (human cervical cancer cell), all of which are donated by Cancer Research Institute of Zhejiang University, China.
(§4) Obtaining 4000 well-growing human solid tumor cells and inoculating them into wells of a 96-well cell culture plate. The culture medium is DMEM High Glucose cell culture medium containing 10% fetal bovine serum. The plate is placed in a carbon dioxide cell incubator (5% CO2) at 37° C. and incubating for 24 hours. After adding the homoharringtonine derivatives of different concentration and mixing uniformly, the plate is placed in a carbon dioxide cell incubator (5% CO2) at 37° C. and incubating for 72 hours. Then the viable cell concentration is determined by the MTT method and the cell viability (%) after drug treatment is calculated. In this experiment, the cell viability of control group (not treated with any compound) is set as 100%.

[7] = system: PANC-1 (pancreatic cancer); assay: MTT solid tumor cell growth inhibition, 72 h; assay type: cell-based, human; details: Homo sapiens, PANC-1, 72 h; for IC50: read-out: IC50; for IC90: read-out: IC90
Protocol: as §3, §4

A549 (human lung cancer) = assay: MTT solid tumor cell growth inhibition, 72 h; assay type: cell-based; details: Homo sapiens, A549, 72 h; for IC50: read-out: IC50; for IC90: read-out: IC90
Protocol: as §3, §4

[8] = system: MGC 803 (human gastric cancer cell); assay: MTT solid tumor cell growth inhibition, 72 h; assay type: cell-based; details: Homo sapiens, MGC 803, 72 h; for IC50: read-out: IC50; for IC90: read-out: IC90
Protocol: as §3, §4

[9] = system: Becap37 (human breast cancer cell); assay: MTT solid tumor cell growth inhibition, 72 h; assay type: cell-based; details: Homo sapiens, Becap37, 72 h; for IC50: read-out: IC50; for IC90: read-out: IC90
Protocol: as §3, §4

[10] = system: Huh7 (human liver cancer cell); assay: MTT solid tumor cell growth inhibition, 72 h; assay type: cell-based; details: Homo sapiens, Huh-7, Huh7, 72 h; for IC50: read-out: IC50; for IC90: read-out: IC90
Protocol: as §3, §4

Compound	IC50 [1] [µg/mL]	IC90 [1] [µg/mL]	IC50 [2] [µg/mL]	IC90 [2] [µg/mL]	IC50 [3] [µg/mL]	IC90 [3] [µg/mL]	IC50 [4] [µg/mL]	IC90 [4] [µg/mL]	IC50 [5] [µg/mL]	IC90 [5] [µg/mL]	IC50 [6] [µg/mL]	IC90 [6] [µg/mL]	IC50 (MG63 (osteosarcoma)) [µg/mL]	IC90 (MG63 (osteosarcoma)) [µg/mL]	IC50 [7] [µg/mL]	IC90 [7] [µg/mL]	IC50 (A549 (human lung cancer)) [µg/mL]	IC90 (A549 (human lung cancer)) [µg/mL]	IC50 [9] [µg/mL]	IC90 [9] [µg/mL]	further results
COCCCNC(=O)C[C@](O)(CCCC(C)(C)O)C(=O)O[C@@H]1C(OC)=C[C@]23CCCN2CCc2cc4c(cc2[C@H]13)OCO4 [BS-HH-028]	3.56 (≈ 5.91 µM)	15 (≈ 25 µM)	2.59 (≈ 4.3 µM)	7.52 (≈ 12.5 µM)	> 16	> 16	2.75 (≈ 4.56 µM)	13 (≈ 21.6 µM)	6.52 (≈ 10.8 µM)	> 16	4.92 (≈ 8.16 µM)	> 16	6.8 (≈ 11.3 µM)	> 16	16 (≈ 26.5 µM)	> 16	16 (≈ 26.5 µM)	> 16	13.1 (≈ 21.8 µM)	> 16	IC50 [8]: 8.62 µg/mL (≈ 14.3 µM); IC90 [8]: 24.3 µg/mL (≈ 40.4 µM); IC50 [10]: 5.93 µg/mL (≈ 9.84 µM); IC90 [10]: > 16 µg/mL
COC1=C[C@]23CCCN2CCc2cc4c(cc2[C@@H]3[C@@H]1OC(=O)[C@@](O)(CCCC(C)(C)O)CC(=O)N1CCC(C#N)CC1)OCO4 [BS-HH-035]	0.87 (≈ 1.39 µM)	> 16	0.72 (≈ 1.15 µM)	6.3 (≈ 10.1 µM)	14.1 (≈ 22.6 µM)	> 16	0.8 (≈ 1.28 µM)	2.96 (≈ 4.75 µM)	5.49 (≈ 8.8 µM)	> 16	1.44 (≈ 2.31 µM)	14.1 (≈ 22.7 µM)	1.98 (≈ 3.17 µM)	> 16	5.02 (≈ 8.05 µM)	> 16	5.41 (≈ 8.67 µM)	> 16	3.75 (≈ 6.01 µM)	> 16	IC50 [8]: 1.79 µg/mL (≈ 2.87 µM); IC90 [8]: 9.2 µg/mL (≈ 14.7 µM); IC50 [10]: 4.46 µg/mL (≈ 7.15 µM); IC90 [10]: > 16 µg/mL
COC1=C[C@]23CCCN2CCc2cc4c(cc2[C@@H]3[C@@H]1OC(=O)[C@@](O)(CCCC(C)(C)O)CC(=O)N1CCCCC1C)OCO4 (stereo partly shown) [BS-HH-037]	0.41 (≈ 0.669 µM)	> 16	0.7 (≈ 1.14 µM)	5.08 (≈ 8.29 µM)	> 16	> 16	1.58 (≈ 2.58 µM)	16 (≈ 26.1 µM)	3.69 (≈ 6.02 µM)	> 16	1 (≈ 1.63 µM)	9.86 (≈ 16.1 µM)	1.44 (≈ 2.35 µM)	16 (≈ 26.1 µM)	6.47 (≈ 10.6 µM)	> 16	1.96 (≈ 3.2 µM)	> 16	1.5 (≈ 2.45 µM)	> 16	IC50 [8]: 0.9 µg/mL (≈ 1.47 µM); IC90 [8]: 9.29 µg/mL (≈ 15.2 µM); IC50 [10]: 16 µg/mL (≈ 26.1 µM); IC90 [10]: > 16 µg/mL
COC1=C[C@]23CCCN2CCc2cc4c(cc2[C@@H]3[C@@H]1OC(=O)[C@@](O)(CCCC(C)(C)O)CC(=O)N1CCCC(C)C1)OCO4 (stereo partly shown) [BS-HH-038]	1.47 (≈ 2.4 µM)	16 (≈ 26.1 µM)	0.32 (≈ 0.522 µM)	4.24 (≈ 6.92 µM)	> 16	> 16	2 (≈ 3.26 µM)	12 (≈ 19.6 µM)	7.37 (≈ 12 µM)	> 16	1.22 (≈ 1.99 µM)	16 (≈ 26.1 µM)	3.71 (≈ 6.05 µM)	> 16	8.83 (≈ 14.4 µM)	> 16	5.72 (≈ 9.33 µM)	> 16	1.95 (≈ 3.18 µM)	> 16	IC50 [10]: 16 µg/mL (≈ 26.1 µM); IC90 [10]: > 16 µg/mL
CCN1CCN(C(=O)C[C@](O)(CCCC(C)(C)O)C(=O)O[C@@H]2C(OC)=C[C@]34CCCN3CCc3cc5c(cc3[C@H]24)OCO5)CC1 [BS-HH-041]	0.89 (≈ 1.42 µM)	> 16	1.85 (≈ 2.95 µM)	16 (≈ 25.5 µM)	> 16	> 16	2.79 (≈ 4.44 µM)	15 (≈ 23.9 µM)	3.2 (≈ 5.1 µM)	> 16	1.96 (≈ 3.12 µM)	13.4 (≈ 21.3 µM)	1.97 (≈ 3.14 µM)	> 16	6.35 (≈ 10.1 µM)	> 16	8.11 (≈ 12.9 µM)	> 16	0.9 (≈ 1.43 µM)	> 16	IC50 [8]: 1 µg/mL (≈ 1.59 µM); IC90 [8]: 11.8 µg/mL (≈ 18.9 µM); IC50 [10]: 16 µg/mL (≈ 25.5 µM); IC90 [10]: > 16 µg/mL
COC1=C[C@]23CCCN2CCc2cc4c(cc2[C@@H]3[C@@H]1OC(=O)[C@@](O)(CCCC(C)(C)O)CC(=O)NCc1ccco1)OCO4 [BS-HH-043]	13 (≈ 21.3 µM)	> 16	15 (≈ 24.6 µM)	> 16	> 16	> 16	11.1 (≈ 18.1 µM)	> 16	> 16	> 16	> 16	> 16	> 16	> 16	> 16	> 16	> 16	> 16	> 16	> 16	IC50 [8]: > 16 µg/mL; IC90 [8]: > 16 µg/mL; IC50 [10]: > 16 µg/mL; IC90 [10]: > 16 µg/mL
